Assay results taken from patent publication US20250230193A1, “CYCLIC COMPOUND HAVING SELECTIVE KRAS INHIBITORY EFFECT ON HRAS AND NRAS” (CHUGAI SEIYAKU KABUSHIKI KAISHA, priority 2022, published 2025).

How the values were obtained:
[1] = target: GDP-bound NRAS wild-type protein (Homo sapiens, UniProt P01111); test: Binding to NRAS by surface plasmon resonance (SPR), Single Cycle Kinetics; conditions: KD ratio NRAS/KRAS, class symbols
[2] = target: GDP-bound HRAS wild-type protein (Homo sapiens, UniProt P01112); test: Binding to HRAS by surface plasmon resonance (SPR), Single Cycle Kinetics; conditions: KD ratio HRAS/KRAS, class symbols
Chain of GDP-bound HRAS wild-type protein (P01112 whole entry): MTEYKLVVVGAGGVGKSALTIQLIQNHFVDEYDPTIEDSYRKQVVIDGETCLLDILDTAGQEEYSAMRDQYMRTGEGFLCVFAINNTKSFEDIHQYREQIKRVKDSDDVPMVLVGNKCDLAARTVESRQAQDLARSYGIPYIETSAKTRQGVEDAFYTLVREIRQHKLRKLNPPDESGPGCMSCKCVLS

Chain of GDP-bound NRAS wild-type protein (P01111 whole entry): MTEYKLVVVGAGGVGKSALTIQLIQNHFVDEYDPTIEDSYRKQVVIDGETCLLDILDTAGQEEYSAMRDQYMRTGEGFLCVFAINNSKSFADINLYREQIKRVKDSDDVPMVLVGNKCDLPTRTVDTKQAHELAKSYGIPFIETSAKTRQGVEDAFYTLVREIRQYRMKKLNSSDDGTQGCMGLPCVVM

| Compound | NRAS/KRAS (ratio of KD value with respect to GDP-bound NRAS wild-type protein to KD value with respect to KRAS) [1] | HRAS/KRAS (ratio of KD value with respect to GDP-bound HRAS wild-type protein to KD value with respect to KRAS) [2] |
| --- | --- | --- |
| CCC(CC)[C@H]1C(=O)N(C)[C@H](C(=O)N(C)C)CC(=O)N(C)[C@@H](COC)C(=O)N[C@@H]([C@@H](C)CC)C(=O)N(C2CC2)CC(=O)N(C)[C@H]2C/C=C\CCN(C2=O)[C@@H](CC2CCC(F)(F)CC2)C(=O)N(C)CC(=O)N[C@@H](CCc2cc(F)c(C(F)(F)F)c(F)c2)C(=O)N2C[C@H](OC3CCCC3)C[C@H]2C(=O)NC2(CC(C)(C)C2)C(=O)N1C [PP2627] | A (a compound having 10 or more and less than 20 is denoted as A) | A (a compound having 10 or more and less than 20 is denoted as A) |
| CC[C@H](C)[C@@H]1NC(=O)[C@H](COC)N(C)C(=O)C[C@@H](C(=O)N(C)C)N(C)C(=O)[C@H](C2CCCC2)N(C)C(=O)C2(CC(C)(C)C2)NC(=O)[C@@H]2C[C@@H](OC3CCCC3)CN2C(=O)[C@H](CCc2ccc(Cl)c(Cl)c2)NC(=O)CN(C)C(=O)[C@H](Cc2ccc(C)cc2)N2CC/C=C\C[C@@H](C2=O)N(C)C(=O)CN(C2CC2)C1=O [PP2628] | A (a compound having 10 or more and less than 20 is denoted as A) | A (a compound having 10 or more and less than 20 is denoted as A) |
| CC[C@H](C)[C@@H]1NC(=O)[C@H](COC)N(C)C(=O)C[C@@H](C(=O)N(C)C)N(C)C(=O)[C@H](C2CCCC2)N(C)C(=O)C2(CC(C)(C)C2)NC(=O)[C@@H]2C[C@@H](OC3CCCC3)CN2C(=O)[C@H](CCc2cc(F)c(C(F)(F)F)c(F)c2)NC(=O)CN(C)C(=O)[C@H](CC2CCCCC2)N2CC/C=C\C[C@@H](C2=O)N(C)C(=O)CN(C2CC2)C1=O [PP2630] | A (a compound having 10 or more and less than 20 is denoted as A) | B (a compound having 3 or more and less than 10 is denoted as B) |
| CCC(CC)[C@H]1C(=O)N(C)[C@H](C(=O)N(C)C)CC(=O)N(C)[C@@H](COC)C(=O)N[C@@H]([C@@H](C)CC)C(=O)N(C2CC2)CC(=O)N(C)[C@H]2C/C=C\CCN(C2=O)[C@@H](Cc2ccc(C(F)F)cc2)C(=O)N(C)CC(=O)N[C@@H](CCc2cc(F)c(C(F)(F)F)c(F)c2)C(=O)N2C[C@H](OC3CCC3)C[C@H]2C(=O)NC2(CC(C)(C)C2)C(=O)N1C [PP2631] | AA (a compound having 20 or more is denoted as AA) | A (a compound having 10 or more and less than 20 is denoted as A) |
| CCC(CC)[C@H]1C(=O)N(C)[C@H](C(=O)N(C)C)CC(=O)N(C)[C@@H](COC)C(=O)N[C@@H]([C@@H](C)CC)C(=O)N(C2CC2)CC(=O)N(C)[C@H]2C/C=C\CCN(C2=O)[C@@H](Cc2ccc(C(F)F)cc2)C(=O)N(C)CC(=O)N[C@@H](CCc2cc(F)c(C(F)(F)F)c(F)c2)C(=O)N2C[C@H](OC3CCCC3)C[C@H]2C(=O)NC2(CC(C)(C)C2)C(=O)N1C [PP2633] | AA (a compound having 20 or more is denoted as AA) | A (a compound having 10 or more and less than 20 is denoted as A) |
| CC[C@H](C)[C@@H]1NC(=O)[C@H](COC)N(C)C(=O)C[C@@H](C(=O)N(C)C)N(C)C(=O)[C@H](C2CCCC2)N(C)C(=O)C2(CC(C)(C)C2)NC(=O)[C@@H]2C[C@@H](OC3CCCC3)CN2C(=O)[C@H](CCc2cc(F)c(C(F)(F)F)c(F)c2)NC(=O)CN(C)C(=O)[C@H](CC2CCC(F)(F)CC2)N2CC/C=C\C[C@@H](C2=O)N(C)C(=O)CN(C2CC2)C1=O [PP2634] | A (a compound having 10 or more and less than 20 is denoted as A) | A (a compound having 10 or more and less than 20 is denoted as A) |
| CCO[C@@H]1C[C@H]2C(=O)NC3(CC(C)(C)C3)C(=O)N(C)[C@@H](C(CC)CC)C(=O)N(C)[C@H](C(=O)N(C)C)CC(=O)N(C)[C@@H](COC)C(=O)N[C@@H]([C@@H](C)CC)C(=O)N3CCC[C@H]3C(=O)N(C)[C@H]3C/C=C\CCN(C3=O)[C@@H](Cc3ccc(C(F)(F)F)cc3)C(=O)N(C)CC(=O)N[C@@H](CCc3ccc(Cl)c(Cl)c3)C(=O)N2C1 [PP2635] | AA (a compound having 20 or more is denoted as AA) | A (a compound having 10 or more and less than 20 is denoted as A) |
| CCC[C@H]1C(=O)N[C@@H]([C@@H](C)CC)C(=O)N2CCC[C@H]2C(=O)N(C)[C@H]2C/C=C\CCN(C2=O)[C@@H](Cc2ccc(C(F)F)cc2)C(=O)N(C)CC(=O)N[C@@H](CCc2ccc(Cl)c(Cl)c2)C(=O)N2C[C@H](OCC)C[C@H]2C(=O)NC2(CC(C)(C)C2)C(=O)N(C)[C@@H](C(CC)CC)C(=O)N(C)[C@H](C(=O)N(C)C)CC(=O)N1C [PP2637] | AA (a compound having 20 or more is denoted as AA) | A (a compound having 10 or more and less than 20 is denoted as A) |
| CCC[C@H]1C(=O)N[C@@H]([C@@H](C)CC)C(=O)N2CCC[C@H]2C(=O)N(C)[C@H]2C/C=C\CCN(C2=O)[C@@H](Cc2ccc(C)cc2)C(=O)N(C)CC(=O)N[C@@H](CCc2ccc(Cl)c(Cl)c2)C(=O)N2C[C@H](OCC)C[C@H]2C(=O)NC2(CC(C)(C)C2)C(=O)N(C)[C@@H](C(CC)CC)C(=O)N(C)[C@H](C(=O)N(C)C)CC(=O)N1C [PP2638] | AA (a compound having 20 or more is denoted as AA) | A (a compound having 10 or more and less than 20 is denoted as A) |
| CCC(CC)[C@H]1C(=O)N(C)[C@H](C(=O)N(C)C)CC(=O)N(C)[C@@H](COC)C(=O)N[C@@H]([C@@H](C)CC)C(=O)N2CCC[C@H]2C(=O)N(C)[C@H]2C/C=C\CCN(C2=O)[C@@H](Cc2ccc(C(F)(F)F)cc2)C(=O)N(C)CC(=O)N[C@@H](CCc2ccc(Cl)c(Cl)c2)C(=O)N2C[C@H](OC(C)C)C[C@H]2C(=O)NC2(CC(C)(C)C2)C(=O)N1C [PP2639] | AA (a compound having 20 or more is denoted as AA) | A (a compound having 10 or more and less than 20 is denoted as A) |
| CCC[C@H]1C(=O)N[C@@H]([C@@H](C)CC)C(=O)N2CCC[C@H]2C(=O)N(C)[C@H]2C/C=C\CCN(C2=O)[C@@H](Cc2ccc(C(F)F)cc2)C(=O)N(C)CC(=O)N[C@@H](CCc2ccc(Cl)c(Cl)c2)C(=O)N2C[C@H](OC(C)C)C[C@H]2C(=O)NC2(CC(C)(C)C2)C(=O)N(C)[C@@H](C(CC)CC)C(=O)N(C)[C@H](C(=O)N(C)C)CC(=O)N1C [PP2640] | AA (a compound having 20 or more is denoted as AA) | A (a compound having 10 or more and less than 20 is denoted as A) |
